Results published in patent US10189842B2 (Agency for Science, Technology and Research, priority 2013, dated 2019).
pIC50: −log10 of the molar value.

Tested on: HEK293-STF3A cells
Assay: STF3A assay (luciferase reporter)
Format: cell-based, Human
Details: Homo sapiens, 24 h, 1 day of treatment
Source text: HEK293-STF cell line was modified from Human embryonic kidney cell line HEK293 transfected with the STF reporter. HEK293-STF3A cell line was further modified from HEK293-STF cell line to express Wnt3A. This cell line was used to identify compounds that regulate either early or late signaling components of the Wnt pathway. These two cell lines were obtained from David Virshup's laboratory, Duke-NUS. L-Wnt3A (ATCC, #CRL-2647) cell line was used for providing Wnt3A conditioned media. The three cell lines were grown in DMEM with 10% FBS incubated in 37° C. with 5% CO2.
2×10^4 HEK293-STF3A cells in 75 μl culture media were seeded in each well of white 96 well plates (Greiner #655098) and incubated overnight at 37° C. 25 μl serially diluted compound was added to the cells to give final concentration of 50 μM to 1.5 nM. After 1 day of treatment, 100 μl of Steady-Glo Luciferase Assay reagent (#E2520, Promega) was added to each well and incubated for 10 minutes at room temperature. Luminescence was measured using Tecan Safire2 plate reader.

Structure (SMILES)	pIC50
Cc1cc2n(n1)CCCN2C(=O)CCC(=O)Nc1ccc(-c2nccs2)cn1 [Compound 26, 4-(2-methyl-6,7-dihydropyrazolo[1,5-a]pyrimidin-4(5H)-yl)-4-oxo-N-(5-(thiazol-2-yl)pyridin-2-yl)butanamide]	> 7.00
Cc1cc2n(n1)CCCN2C(=O)CCC(=O)Nc1ccc(-n2ccnc2)cc1 [Compound 27, N-(4-(1H-imidazol-1-yl)phenyl)-4-(2-methyl-6,7-dihydropyrazolo[1,5-a]pyrimidin-4(5H)-yl)-4-oxobutanamide]	> 6.00
Cc1cc2n(n1)CCCN2C(=O)CCC(=O)Nc1ccc(-c2csc(C)n2)cc1 [Compound 28, 4-(2-methyl-6,7-dihydropyrazolo[1,5-a]pyrimidin-4(5H)-yl)-N-(4-(2-methylthiazol-4-yl)phenyl)-4-oxobutanamide]	> 7.00
Cc1cc2n(n1)CCCN2C(=O)CCC(=O)Nc1ccc(-c2ccnn2C)cc1 [Compound 29, N-(4-(1-methyl-1H-pyrazol-5-yl)phenyl)-4-(2-methyl-6,7-dihydropyrazolo[1,5-a]pyrimidin-4(5H)-yl)-4-oxobutanamide]	> 6.00
Cc1cc2n(n1)CCCN2C(=O)CCC(=O)Nc1ccc(C(C)(C)C)cc1 [Compound 30, N-(4-(tert-butyl)phenyl)-4-(2-methyl-6,7-dihydropyrazolo[1,5-a]pyrimidin-4(5H)-yl)-4-oxobutanamide]	< 5.00
Cc1cc2n(n1)CCCN2C(=O)CCC(=O)Nc1ccc(N2CCCC2)cc1 [Compound 31, 4-(2-methyl-6,7-dihydropyrazolo[1,5-a]pyrimidin-4(5H)-yl)-4-oxo-N-(4-(pyrrolidin-1-yl)phenyl)butanamide]	> 5.30
Cc1cc2n(n1)CCCN2C(=O)CCC(=O)Nc1ccc(-c2ccccc2)cc1 [Compound 33, N-([1,1′-biphenyl]-4-yl)-4-(2-methyl-6,7-dihydropyrazolo[1,5-a]pyrimidin-4(5H)-yl)-4-oxobutanamide]	> 7.00
Cc1cc2n(n1)CCCN2C(=O)CCC(=O)Nc1ccc(-c2ccccn2)cc1 [Compound 34, 4-(2-methyl-6,7-dihydropyrazolo[1,5-a]pyrimidin-4(5H)-yl)-4-oxo-N-(4-(pyridin-2-yl)phenyl)butanamide]	> 7.00
Cc1cc2n(n1)CCCN2C(=O)CCC(=O)Nc1ccc(-c2cccnc2)cc1 [Compound 35, 4-(2-methyl-6,7-dihydropyrazolo[1,5-a]pyrimidin-4(5H)-yl)-4-oxo-N-(4-(pyridin-3-yl)phenyl)butanamide]	> 7.00
Cc1cc2n(n1)CCCN2C(=O)CCC(=O)Nc1ccc(-c2ccncc2)cc1 [Compound 36, 4-(2-methyl-6,7-dihydropyrazolo[1,5-a]pyrimidin-4(5H)-yl)-4-oxo-N-(4-(pyridin-4-yl)phenyl)butanamide]	> 6.00
Cc1cc2n(n1)CCCN2C(=O)CCC(=O)Nc1ccc(-c2cccnn2)cc1 [Compound 37, 4-{2-methyl-5H,6H,7H-pyrazolo[1,5-a]pyrimidin-4-yl}-4-oxo-N-[4-(pyridazin-3-yl)phenyl]butanamide]	> 6.00
Cc1cc2n(n1)CCCN2C(=O)CCC(=O)Nc1ccc(-c2ccncn2)cc1 [Compound 38, 4-(2-methyl-6,7-dihydropyrazolo[1,5-a]pyrimidin-4(5H)-yl)-4-oxo-N-(4-(pyrimidin-4-yl)phenyl)butanamide]	< 5.00
Cc1cc2n(n1)CCCN2C(=O)CCC(=O)Nc1ccc(-c2cncnc2)cc1 [Compound 39, 4-{2-methyl-5H,6H,7H-pyrazolo[1,5-a]pyrimidin-4-yl}-4-oxo-N-[4-(pyrimidin-5-yl)phenyl]butanamide]	> 7.00
Cc1cc2n(n1)CCCN2C(=O)CCC(=O)Nc1ccc(-c2ncccn2)cc1 [Compound 40, 4-{2-methyl-5H,6H,7H-pyrazolo[1,5-a]pyrimidin-4-yl}-4-oxo-N-[4-(pyrimidin-2-yl)phenyl]butanamide]	> 6.00
Cc1cc2n(n1)CCCN2C(=O)CCC(=O)Nc1ccc(-c2ccccn2)cn1 [Compound 41, N-([2,3′-bipyridin]-6′-yl)-4-(2-methyl-6,7-dihydropyrazolo[1,5-a]pyrimidin-4(5H)-yl)-4-oxobutanamide]	> 7.00
Cc1cc2n(n1)CCCN2C(=O)CCC(=O)Nc1ccc(-c2ccccc2)nc1 [Compound 43, 4-(2-methyl-6,7-dihydropyrazolo[1,5-a]pyrimidin-4(5H)-yl)-4-oxo-N-(6-phenylpyridin-3-yl)butanamide]	> 7.00
Cc1cc2n(n1)CCCN2C(=O)CCC(=O)Nc1ccc(-c2ccccc2)cn1 [Compound 44, 4-(2-methyl-6,7-dihydropyrazolo[1,5-a]pyrimidin-4(5H)-yl)-4-oxo-N-(5-phenylpyridin-2-yl)butanamide]	> 7.00

Structure (SMILES)	pIC50
Cc1cc2n(n1)CCCN2C(=O)CCC(=O)Nc1ccc(-c2ccccc2)nn1 [Compound 45, 4-(2-methyl-6,7-dihydropyrazolo[1,5-a]pyrimidin-4(5H)-yl)-4-oxo-N-(6-phenylpyridazin-3-yl)butanamide]	> 7.00
Cc1cc2n(n1)CCCN2C(=O)CCC(=O)Nc1ncc(-c2ccccc2)cn1 [Compound 46, 4-{2-methyl-5H,6H,7H-pyrazolo[1,5-a]pyrimidin-4-yl}-4-oxo-N-(5-phenylpyrimidin-2-yl)butanamide]	> 6.00
Cc1cc2n(n1)CCCN2C(=O)CCC(=O)Nc1cnc(-c2ccccc2)cn1 [Compound 47, 4-(2-methyl-6,7-dihydropyrazolo[1,5-a]pyrimidin-4(5H)-yl)-4-oxo-N-(5-phenylpyrazin-2-yl)butanamide]	> 7.00
Cc1cc2n(n1)CCCN2C(=O)CCC(=O)Nc1ccc(-c2cccnc2)nc1 [Compound 48, N-([2,3′-bipyridin]-5-yl)-4-(2-methyl-6,7-dihydropyrazolo[1,5-a]pyrimidin-4(5H)-yl)-4-oxobutanamide]	> 7.00
Cc1cc2n(n1)CCCN2C(=O)CCC(=O)Nc1ccc(-c2cccnc2)cn1 [Compound 49, 4-{2-methyl-5H,6H,7H-pyrazolo[1,5-a]pyrimidin-4-yl}-4-oxo-N-[5-(pyridin-3-yl)pyridin-2-yl]butanamide]	> 7.00
Cc1cc2n(n1)CCCN2C(=O)CCC(=O)Nc1ccc(-c2cnccn2)cn1 [Compound 50, 4-(2-methyl-6,7-dihydropyrazolo[1,5-a]pyrimidin-4(5H)-yl)-4-oxo-N-(5-(pyrazin-2-yl)pyridin-2-yl)butanamide]	> 7.00
Cc1cc2n(n1)CCCN2C(=O)CCC(=O)Nc1cnc(-c2cccnc2)cn1 [Compound 52, 4-(2-methyl-6,7-dihydropyrazolo[1,5-a]pyrimidin-4(5H)-yl)-4-oxo-N-(5-(pyridin-3-yl)pyrazin-2-yl)butanamide]	> 7.00
Cc1cc2n(n1)CCCN2C(=O)CCC(=O)Nc1ccc(-c2ccccc2)cc1C [Compound 53, 4-(2-methyl-6,7-dihydropyrazolo[1,5-a]pyrimidin-4(5H)-yl)-N-(3-methyl-[1,1′-biphenyl]-4-yl)-4-oxobutanamide]	< 5.00
Cc1cc2n(n1)CCCN2C(=O)CCC(=O)Nc1ccc(-c2ccccc2)c(C)c1 [Compound 54, 4-(2-methyl-6,7-dihydropyrazolo[1,5-a]pyrimidin-4(5H)-yl)-N-(2-methyl-[1,1′-biphenyl]-4-yl)-4-oxobutanamide]	> 7.00
COc1cc(-c2ccccc2)ccc1NC(=O)CCC(=O)N1CCCn2nc(C)cc21 [Compound 55, N-(3-methoxy-[1,1′-biphenyl]-4-yl)-4-(2-methyl-6,7-dihydropyrazolo[1,5-a]pyrimidin-4(5H)-yl)-4-oxobutanamide]	< 5.00
COc1cc(NC(=O)CCC(=O)N2CCCn3nc(C)cc32)ccc1-c1ccccc1 [Compound 56, N-(2-methoxy-[1,1′-biphenyl]-4-yl)-4-(2-methyl-6,7-dihydropyrazolo[1,5-a]pyrimidin-4(5H)-yl)-4-oxobutanamide]	> 5.30
Cc1cc2n(n1)CCCN2C(=O)CCC(=O)Nc1ccc(-c2ccccc2)c(F)c1 [Compound 57, N-(2-fluorobiphenyl-4-yl)-4-(2-methyl-6,7-dihydropyrazolo[1,5-a]pyrimidin-4(5H)-yl)-4-oxobutanamide]	> 7.00
Cc1cc2n(n1)CCCN2C(=O)CCC(=O)Nc1ccc(-c2ccccc2C)cc1 [Compound 58, 4-(2-methyl-6,7-dihydropyrazolo[1,5-a]pyrimidin-4(5H)-yl)-N-(2′-methyl-[1,1′-biphenyl]-4-yl)-4-oxobutanamide]	> 7.00
Cc1cccc(-c2ccc(NC(=O)CCC(=O)N3CCCn4nc(C)cc43)cc2)c1 [Compound 59, 4-(2-methyl-6,7-dihydropyrazolo[1,5-a]pyrimidin-4(5H)-yl)-N-(3′-methyl-[1,1′-biphenyl]-4-yl)-4-oxobutanamide]	> 7.00
Cc1ccc(-c2ccc(NC(=O)CCC(=O)N3CCCn4nc(C)cc43)cc2)cc1 [Compound 60, 4-(2-methyl-6,7-dihydropyrazolo[1,5-a]pyrimidin-4(5H)-yl)-N-(4′-methyl-[1,1′-biphenyl]-4-yl)-4-oxobutanamide]	> 7.00
COc1ccccc1-c1ccc(NC(=O)CCC(=O)N2CCCn3nc(C)cc32)cc1 [Compound 61, N-(2′-methoxy-[1,1′-biphenyl]-4-yl)-4-(2-methyl-6,7-dihydropyrazolo[1,5-a]pyrimidin-4(5H)-yl)-4-oxobutanamide]	< 5.00
COc1cccc(-c2ccc(NC(=O)CCC(=O)N3CCCn4nc(C)cc43)cc2)c1 [Compound 62, N-(3′-methoxy-[1,1′-biphenyl]-4-yl)-4-(2-methyl-6,7-dihydropyrazolo[1,5-a]pyrimidin-4(5H)-yl)-4-oxobutanamide]	> 7.00
